≈ marks a conversion by molar mass, not a printed value. Calls of active or inactive are those of the source. No cut-off for these calls is given here.
Experiments:
Coagulation factor X = Coagulation factor X (Homo sapiens, UniProt P00742); assay: Binding affinity to human coagulation factor 10a assessed as inhibition constant using N-Benzoyl-L-isoleucyl-L-glutamyl-glycyl-Larginine p-Nitroaniline and its gamma glutamyl methyl ester as substrate measured upto 120 mins by spectrophotometric analysis
[1] = target: Urokinase-type plasminogen activator (Homo sapiens, UniProt P00749); assay: Binding affinity to human urokinase assessed as inhibition constant using L-Pyroglutamyl-glycyl-L-arginine p-Nitroaniline as substrate upto 120 mins by spectrophotometric analysis
Kallikrein-1 = Kallikrein-1 (Homo sapiens, UniProt P06870); assay: Binding affinity to human tissue kallikrein-1 assessed as inhibition constant using H-D-Valyl-L-leucyl-L-arginine 7-amino-4-trifluoromethylcoumarin as substrate measured upto 120 mins by spectrofluorometric analysis; format: tissue-based
[2] = Oral bioavailability in Sprague-Dawley rat at 1.04 mg/kg; format: ADME, organism-based; settings: in vivo
[3] = Metabolic stability in Sprague-Dawley rat liver microsomes assessed as half life; format: ADME, Microsome; set-up: dose or concentration left out as unconfirmed
Myeloblastin = Myeloblastin (Homo sapiens, UniProt P24158); assay: Binding affinity to human neutrophil proteinase 3 assessed as inhibition constant using Methoxysuccinyl-L-alanyl-L-alanyl-L-prolylL-valine p-Nitroaniline as substrate measured upto 120 mins by spectrophotometric analysis
[4] = target: Acetylcholinesterase (Homo sapiens) (UniProt P22303); assay: Inhibition of acetylcholinesterase (unknown origin) at 16 to 94 ug/ml; settings: dose 16-94 µg/ml
Coagulation factor VII = Coagulation factor VII (Homo sapiens, UniProt P08709); assay: Binding affinity to recombinant human coagulation factor 7a assessed as inhibition constant using N-alpha-Benzyloxycarbonyl-D-arginyl-glycyl-Larginine p-Nitroaniline as substrate measured upto 120 mins by coupled enzyme assay
[5] = Aqueous solubility of the compound at pH 1.0; format: physicochemical; settings: aqueous medium
Cathepsin G = Cathepsin G (Homo sapiens, UniProt P08311); assay: Binding affinity to human neutrophil cathepsin G assessed as inhibition constant using Succinyl-L-alanyl-L-alanyl-L-prolyl-Lphenylalanine p-Nitroaniline as substrate measured upto 120 mins by spectrophotometric analysis
Homo sapiens [6] = organism: Homo sapiens; assay: Inhibition of Monoamine oxidase (unknown origin) at 16 to 94 ug/ml; settings: dose 16-94 µg/ml
Chymase = Chymase (Homo sapiens, UniProt P23946); assay: Binding affinity to human mast cell chymase assessed as inhibition constant using Succinyl-L-alanyl-L-alanyl-L-prolyl-L phenylalanine p-Nitroaniline as substrate measured upto 120 mins by spectrophotometric analysis
Plasminogen = Plasminogen (Homo sapiens, UniProt P00747); assay: Binding affinity to human plasmin assessed as inhibition constant using H-D-Valyl-L-leucyl-L-lysine p-Nitroaniline as substrate measured upto 120 mins by spectrophotometric analysis
[7] = Fraction unbound in human plasma; format: ADME, cell-free
[8] = target: Vitamin K-dependent protein C (Homo sapiens, UniProt P04070); assay: Binding affinity to human activated protein C assessed as inhibition constant using L-Pyroglutamyl-L-prolyl-L-arginine p-Nitroaniline as substrate measured upto 120 mins by spectrophotometric analysis
Plasma = assay: Anticoagulant activity in human plasma assessed as activated partial thromboplastin time; format: functional
[9] = Metabolic stability in cynomolgus monkey liver microsomes assessed as half life; format: ADME, Macaca fascicularis, Microsome; set-up: dose or concentration left out as unconfirmed
Homo sapiens [10] = organism: Homo sapiens; assay: Inhibition of Phosphodiesterase (unknown origin) at 16 to 94 ug/ml; settings: dose 16-94 µg/ml
[11] = AUC in Sprague-Dawley rat at 1.04 mg/kg, po; format: ADME, organism-based; set-up: dose 1.04 mg/kg; settings: in vivo
[12] = Volume of distribution at steady state in cynomolgus monkey at 1.50 mg/kg, po or 0.50 mg/kg, iv; format: ADME, organism-based, Macaca fascicularis; settings: in vivo, dose 1.5 mg/kg, read-out: Vdss
[13] = AUC in cynomolgus monkey at 1.50 mg/kg, po; format: ADME, organism-based, Macaca fascicularis; set-up: dose 1.5 mg/kg; settings: in vivo, 1.5 mg/kg
[14] = Metabolic stability in human liver microsomes assessed as half life; format: ADME, Microsome
Neutrophil elastase = Neutrophil elastase (Homo sapiens, UniProt P08246); assay: Binding affinity to human neutrophil elastase assessed as inhibition constant using Methoxysuccinyl-L-alanyl-L-alanyl-L-prolylL-valine p-Nitroaniline as substrate measured upto 120 mins by spectrophotometric analysis
[15] = Oral bioavailability in cynomolgus monkey at 1.50 mg/kg; format: ADME, organism-based, Macaca fascicularis; settings: in vivo, dose 1.5 mg/kg
[16] = Protein binding in cynomolgus monkey plasma; format: ADME, cell-free, Macaca fascicularis; settings: read-out: PPB (converted)
[17] = Volume of distribution at steady state in Sprague-Dawley rat at 1.04 mg/kg, po or 0.52 mg/kg, iv; format: ADME, organism-based; settings: in vivo, read-out: Vdss
[18] = Fraction unbound in Sprague-Dawley rat plasma; format: ADME, cell-free
[19] = Aqueous solubility of the compound at pH 6.5; format: physicochemical; settings: aqueous medium
[20] = Half life in Sprague-Dawley rat at 1.04 mg/kg, po or 0.52 mg/kg, iv; format: ADME, organism-based; settings: in vivo
Coagulation factor IX = Coagulation factor IX (Homo sapiens, UniProt P00740); assay: Binding affinity to human coagulation factor 9a assessed as inhibition constant using Methylsulfonyl-D-cyclohexylglycyl-glycylarginine 7-amino-4-methylcoumarin as substrate measured upto 120 mins by spectrofluorometric analysis
[21] = target: Tissue-type plasminogen activator (Homo sapiens, UniProt P00750); assay: Binding affinity to human tissue type plasminogen assessed as inhibition constant using Methanesulfonyl-D-Cyclohexylalanyl-glycylarginine p-Nitroaniline as substrate measured upto 120 mins by spectrophotometric analysis
Chymotrypsin = Chymotrypsin (Homo sapiens, UniProt Q99895+P17538+P40313+Q6GPI1); assay: Binding affinity to human chymotrypsin assessed as inhibition constant using 3-Carbomethoxypropionyl-L-arginyl-Lprolyl-L-tyrosine p-Nitroaniline as substrate measured upto 120 mins by spectrophotometric analysis; format: protein assay
[22] = Half life in cynomolgus monkey at 1.50 mg/kg, po or 0.50 mg/kg, iv; format: ADME, organism-based, Macaca fascicularis; settings: in vivo, dose 1.5 mg/kg
Trypsin = Trypsin (Homo sapiens, UniProt P07477+P07478+P35030); assay: Binding affinity to human trypsin assessed as inhibition constant using N-Benzoyl-L-isoleucyl-L-glutamyl-glycyl-Larginine p-Nitroaniline and its gamma glutamyl methyl ester as substrate measured upto 120 mins by spectrophotometric analysis; format: protein assay
[23] = Clearance in cynomolgus monkey at 1.50 mg/kg, po or 0.50 mg/kg, iv; format: ADME, organism-based, Macaca fascicularis; settings: in vivo, dose 1.5 mg/kg
[24] = Clearance in Sprague-Dawley rat at 1.04 mg/kg, po or 0.52 mg/kg, iv; format: ADME, organism-based; settings: in vivo
Coagulation factor XII = Coagulation factor XII (Homo sapiens, UniProt P00748); assay: Binding affinity to human coagulation factor 12a assessed as inhibition constant using H-D-Cyclohexylalanyl-glycyl-arginyl p-Nitroaniline as substrate measured upto 120 mins by spectrophotometric analysis
[25] = Protein binding in Sprague-Dawley rat plasma assessed as bound fraction; format: ADME, cell-free; set-up: dose or concentration left out as unconfirmed
Coagulation factor XI = Coagulation factor XI (Homo sapiens, UniProt P03951); assay: Binding affinity to human coagulation factor 11a using L-Pyroglutamyl-L-prolyl-L-arginine p-Nitroaniline as substrate assessed as inhibition constant measured upto 120 mins by spectrophotometric analysis
[26] = Oral bioavailability in Sprague-Dawley rat at 1.10 mg/kg; format: ADME, organism-based; settings: in vivo, dose 1.1 mg/kg
[27] = Clearance in Sprague-Dawley rat at 1.10 mg/kg, po or 0.55 mg/kg, iv; format: ADME, organism-based; settings: in vivo, dose 1.1 mg/kg
[28] = Volume of distribution at steady state in Sprague-Dawley rat at 1.10 mg/kg, po or 0.55 mg/kg, iv; format: ADME, organism-based; settings: in vivo, dose 1.1 mg/kg, read-out: Vdss
[29] = AUC in Sprague-Dawley rat at 1.10 mg/kg, po; format: ADME, organism-based; set-up: dose 1.1 mg/kg; settings: in vivo, 1.1 mg/kg
[30] = Apparent permeability across apical to basolateral side in human Caco2 cells; format: ADME, cell-based; settings: Caco-2, read-out: permeability
[31] = Half life in Sprague-Dawley rat at 1.10 mg/kg, po or 0.55 mg/kg, iv; format: ADME, organism-based; settings: in vivo, dose 1.1 mg/kg
Oryctolagus cuniculus = assay: Antithrombotic activity in New Zealand White rabbit model of electrically-induced carotid artery thrombosis assessed as inhibition of thrombosis formation by measuring increase in bleeding time administered as iv bolus dose and subsequently administered as iv infusion 30 mins prior to injury; format: functional, organism-based

Chain of Coagulation factor XI (P03951 19-387 limits assumed): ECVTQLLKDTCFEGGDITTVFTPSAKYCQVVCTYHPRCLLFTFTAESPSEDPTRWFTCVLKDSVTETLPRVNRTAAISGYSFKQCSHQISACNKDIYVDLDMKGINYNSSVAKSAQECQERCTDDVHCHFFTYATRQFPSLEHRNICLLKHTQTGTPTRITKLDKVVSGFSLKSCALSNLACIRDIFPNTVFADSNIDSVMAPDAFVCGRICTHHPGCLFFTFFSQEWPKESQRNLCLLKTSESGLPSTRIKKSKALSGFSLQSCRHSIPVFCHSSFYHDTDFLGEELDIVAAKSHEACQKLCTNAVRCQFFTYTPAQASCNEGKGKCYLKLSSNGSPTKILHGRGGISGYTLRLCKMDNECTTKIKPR
Chain of Coagulation factor XI (P03951 388-625 limits assumed): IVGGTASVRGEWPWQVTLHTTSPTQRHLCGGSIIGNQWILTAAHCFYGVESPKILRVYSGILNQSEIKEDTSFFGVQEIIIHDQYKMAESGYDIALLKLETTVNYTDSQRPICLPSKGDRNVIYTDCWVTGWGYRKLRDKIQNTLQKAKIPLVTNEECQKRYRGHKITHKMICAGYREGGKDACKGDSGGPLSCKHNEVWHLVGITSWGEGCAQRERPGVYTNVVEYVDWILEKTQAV
Chain of Vitamin K-dependent protein C (P04070 43-197 limits assumed): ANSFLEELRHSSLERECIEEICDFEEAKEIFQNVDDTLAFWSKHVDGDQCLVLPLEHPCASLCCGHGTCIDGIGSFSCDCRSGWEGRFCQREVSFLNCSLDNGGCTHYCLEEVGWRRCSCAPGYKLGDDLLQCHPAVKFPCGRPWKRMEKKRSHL
Chain of Vitamin K-dependent protein C (P04070 212-461 limits assumed): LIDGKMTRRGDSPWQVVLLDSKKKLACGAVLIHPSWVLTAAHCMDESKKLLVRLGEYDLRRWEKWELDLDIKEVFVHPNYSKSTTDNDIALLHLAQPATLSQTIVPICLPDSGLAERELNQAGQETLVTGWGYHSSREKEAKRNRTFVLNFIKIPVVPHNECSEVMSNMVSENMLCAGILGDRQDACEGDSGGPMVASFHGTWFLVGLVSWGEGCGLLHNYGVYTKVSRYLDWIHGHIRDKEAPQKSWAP
Chain of Coagulation factor VII (P08709 61-212 limits assumed): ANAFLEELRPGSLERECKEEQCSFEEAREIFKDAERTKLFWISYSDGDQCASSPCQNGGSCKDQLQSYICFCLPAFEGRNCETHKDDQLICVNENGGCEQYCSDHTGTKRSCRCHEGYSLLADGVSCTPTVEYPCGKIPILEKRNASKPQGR
Chain of Coagulation factor VII (P08709 213-466 limits assumed): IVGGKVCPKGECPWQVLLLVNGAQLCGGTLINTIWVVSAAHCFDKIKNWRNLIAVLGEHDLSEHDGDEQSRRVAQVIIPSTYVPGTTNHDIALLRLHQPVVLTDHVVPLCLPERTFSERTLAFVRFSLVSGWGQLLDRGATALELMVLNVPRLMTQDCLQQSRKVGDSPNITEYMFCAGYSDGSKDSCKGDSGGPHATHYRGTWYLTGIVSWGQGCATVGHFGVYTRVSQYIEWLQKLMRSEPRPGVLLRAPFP
Chain of Cathepsin G (P08311 whole entry): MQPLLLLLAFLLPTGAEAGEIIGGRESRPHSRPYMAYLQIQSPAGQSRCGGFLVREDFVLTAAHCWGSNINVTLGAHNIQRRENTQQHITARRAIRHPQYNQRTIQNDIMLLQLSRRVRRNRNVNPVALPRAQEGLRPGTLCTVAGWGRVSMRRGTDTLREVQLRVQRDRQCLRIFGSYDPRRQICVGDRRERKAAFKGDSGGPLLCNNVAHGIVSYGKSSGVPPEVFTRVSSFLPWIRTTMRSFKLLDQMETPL
Chain of Neutrophil elastase (P08246 whole entry): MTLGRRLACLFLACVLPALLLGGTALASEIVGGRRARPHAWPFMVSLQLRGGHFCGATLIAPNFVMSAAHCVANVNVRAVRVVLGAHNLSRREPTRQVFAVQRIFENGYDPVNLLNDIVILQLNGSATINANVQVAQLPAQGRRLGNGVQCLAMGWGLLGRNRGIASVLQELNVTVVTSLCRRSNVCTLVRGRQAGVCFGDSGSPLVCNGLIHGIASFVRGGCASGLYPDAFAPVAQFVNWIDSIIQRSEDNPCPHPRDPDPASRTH
Chain of Coagulation factor XII (P00748 20-372 limits assumed): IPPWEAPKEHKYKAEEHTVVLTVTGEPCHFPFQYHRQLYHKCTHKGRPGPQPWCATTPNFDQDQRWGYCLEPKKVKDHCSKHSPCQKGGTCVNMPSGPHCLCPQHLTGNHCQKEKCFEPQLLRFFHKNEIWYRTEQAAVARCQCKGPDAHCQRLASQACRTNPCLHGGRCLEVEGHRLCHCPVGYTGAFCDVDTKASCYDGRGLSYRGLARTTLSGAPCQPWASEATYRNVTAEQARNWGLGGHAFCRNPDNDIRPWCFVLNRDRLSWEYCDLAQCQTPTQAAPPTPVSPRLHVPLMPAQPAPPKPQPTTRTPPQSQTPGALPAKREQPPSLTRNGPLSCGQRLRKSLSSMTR
Chain of Coagulation factor XII (P00748 373-615 limits assumed): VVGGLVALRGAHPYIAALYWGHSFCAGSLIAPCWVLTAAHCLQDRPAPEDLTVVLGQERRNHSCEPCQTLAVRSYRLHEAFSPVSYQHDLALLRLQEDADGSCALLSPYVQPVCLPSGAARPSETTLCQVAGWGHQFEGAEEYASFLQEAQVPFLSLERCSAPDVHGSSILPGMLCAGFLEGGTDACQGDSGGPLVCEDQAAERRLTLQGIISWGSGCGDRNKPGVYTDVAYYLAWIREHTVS
Chain of Kallikrein-1 (P06870 whole entry): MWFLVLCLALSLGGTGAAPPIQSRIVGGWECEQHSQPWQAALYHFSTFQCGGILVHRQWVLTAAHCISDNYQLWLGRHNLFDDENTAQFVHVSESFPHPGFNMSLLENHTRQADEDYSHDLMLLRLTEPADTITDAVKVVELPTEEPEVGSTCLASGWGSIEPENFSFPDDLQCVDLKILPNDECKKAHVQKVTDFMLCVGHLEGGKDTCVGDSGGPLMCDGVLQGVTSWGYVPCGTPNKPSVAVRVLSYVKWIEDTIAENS
Chain of Plasminogen (P00747 97-580 limits assumed): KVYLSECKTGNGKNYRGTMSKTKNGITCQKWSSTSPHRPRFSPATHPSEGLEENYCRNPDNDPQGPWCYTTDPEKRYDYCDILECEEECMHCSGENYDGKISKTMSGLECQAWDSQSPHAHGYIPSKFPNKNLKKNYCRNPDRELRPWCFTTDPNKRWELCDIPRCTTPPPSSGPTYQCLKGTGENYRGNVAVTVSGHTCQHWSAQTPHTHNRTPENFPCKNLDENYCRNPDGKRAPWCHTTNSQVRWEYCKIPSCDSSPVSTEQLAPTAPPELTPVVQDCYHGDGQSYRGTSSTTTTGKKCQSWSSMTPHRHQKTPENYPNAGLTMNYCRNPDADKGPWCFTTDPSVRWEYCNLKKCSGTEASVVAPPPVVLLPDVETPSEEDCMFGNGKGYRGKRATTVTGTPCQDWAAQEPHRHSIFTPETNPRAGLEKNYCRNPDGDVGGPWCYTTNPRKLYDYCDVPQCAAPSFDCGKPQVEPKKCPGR
Chain of Plasminogen (P00747 581-810 limits assumed): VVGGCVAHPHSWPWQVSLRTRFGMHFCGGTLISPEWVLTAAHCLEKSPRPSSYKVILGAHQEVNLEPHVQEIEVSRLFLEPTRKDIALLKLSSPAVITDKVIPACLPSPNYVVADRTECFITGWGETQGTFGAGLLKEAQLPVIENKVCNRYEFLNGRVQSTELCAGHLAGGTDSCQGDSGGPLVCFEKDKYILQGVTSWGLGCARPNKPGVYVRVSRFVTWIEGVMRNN
Chain of Tissue-type plasminogen activator (P00750 whole entry): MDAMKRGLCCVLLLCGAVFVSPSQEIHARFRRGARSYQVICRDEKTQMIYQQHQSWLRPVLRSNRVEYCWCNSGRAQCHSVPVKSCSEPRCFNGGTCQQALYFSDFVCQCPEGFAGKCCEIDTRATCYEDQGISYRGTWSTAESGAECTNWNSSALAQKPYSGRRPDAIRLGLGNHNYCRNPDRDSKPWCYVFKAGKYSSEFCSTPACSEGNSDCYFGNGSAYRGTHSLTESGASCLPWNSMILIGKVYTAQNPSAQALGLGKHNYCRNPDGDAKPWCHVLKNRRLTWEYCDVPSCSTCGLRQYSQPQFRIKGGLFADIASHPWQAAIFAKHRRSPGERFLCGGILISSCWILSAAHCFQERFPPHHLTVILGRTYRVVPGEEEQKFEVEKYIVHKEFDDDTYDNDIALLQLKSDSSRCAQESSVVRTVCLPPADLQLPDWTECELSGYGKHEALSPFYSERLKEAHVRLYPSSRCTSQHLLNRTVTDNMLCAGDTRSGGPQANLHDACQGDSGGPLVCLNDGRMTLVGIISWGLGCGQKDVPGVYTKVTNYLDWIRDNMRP
Chain of Coagulation factor X (P00742 41-179 limits assumed): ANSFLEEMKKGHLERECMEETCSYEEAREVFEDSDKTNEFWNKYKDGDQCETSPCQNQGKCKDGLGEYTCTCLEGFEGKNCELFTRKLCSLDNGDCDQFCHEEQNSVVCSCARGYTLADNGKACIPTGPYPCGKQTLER
Chain of Coagulation factor X (P00742 235-488 limits assumed): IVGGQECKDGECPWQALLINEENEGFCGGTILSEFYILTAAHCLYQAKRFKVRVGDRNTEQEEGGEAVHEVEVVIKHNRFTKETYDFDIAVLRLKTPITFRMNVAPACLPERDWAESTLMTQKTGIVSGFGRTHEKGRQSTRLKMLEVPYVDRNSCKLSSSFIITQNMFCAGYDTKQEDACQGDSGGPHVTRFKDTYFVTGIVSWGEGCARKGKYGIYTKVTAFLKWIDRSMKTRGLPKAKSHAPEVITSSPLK
Chain of Myeloblastin (P24158 whole entry): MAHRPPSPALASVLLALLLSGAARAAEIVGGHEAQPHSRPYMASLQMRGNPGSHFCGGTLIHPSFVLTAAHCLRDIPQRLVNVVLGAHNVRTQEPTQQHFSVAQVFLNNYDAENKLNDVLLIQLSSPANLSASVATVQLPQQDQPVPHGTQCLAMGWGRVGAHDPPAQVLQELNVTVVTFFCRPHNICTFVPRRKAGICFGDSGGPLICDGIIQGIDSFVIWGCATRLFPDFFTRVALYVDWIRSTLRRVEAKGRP

Work on `C[C@@H]1CCC[C@H](n2cnc(-c3cc(Cl)ccc3-n3cc(Cl)nn3)cc2=O)c2cc(ccn2)-c2c(cnn2C(F)F)NC1=O` [MILVEXIAN] yielded a Ki (Coagulation factor X) of over 13000 nM, a Ki [1] of 3900 nM and a Ki (Kallikrein-1) of over 11000 nM. It also gave a bioavailability [2] of 18%, a half-life [3] of over 2 h and a Ki (Myeloblastin) of over 12000 nM. The inhibition [4] was “inactive”, the Ki (Coagulation factor VII) was 1200 nM and the solubility [5] was 8 µg/mL (≈ 12.8 µM). For the same molecule, the Ki (Cathepsin G) was over 20000 nM, the inhibition (Homo sapiens [6]) was “inactive” and the Ki (Chymase) was over 13000 nM. It also gave a Ki (Plasminogen) of 2650 nM, a fraction unbound [7] of 0.085 and a Ki [8] of over 21000 nM. The EC1.5 (Plasma) was 0.5 µM, the half-life [9] was 1.38 h and the inhibition (Homo sapiens [10]) was “inactive”. For the same molecule, the AUC [11] was 0.7 µM·h, the Vd [12] was 2.2 L/kg and the AUC [13] was 1.22 µM·h. For the same molecule, the half-life [14] was over 2 h, the Ki (Neutrophil elastase) was over 8000 nM and the bioavailability [15] was 32%. The fraction unbound [16] was 0.109, the Vd [17] was 0.9 L/kg and the fraction unbound [18] was 0.029. The solubility [19] was 6 µg/mL (≈ 9.58 µM), the half-life [20] was 1.4 h and the Ki (Coagulation factor IX) was over 27000 nM. It also gave a Ki [21] of 2300 nM, a Ki (Chymotrypsin) of 35 nM and a half-life [22] of 2.7 h. It also gave a Ki (Trypsin) of 720 nM, a clearance [23] of 10.3 mL/min/kg and a clearance [24] of 7.1 mL/min/kg. The Ki (Coagulation factor XII) was over 3000 nM and the fraction unbound [25] was 0.029.

`C[C@@H]1CCC[C@H](N2CCC(c3cc(Cl)ccc3-n3ccnn3)=CC2=O)c2cc(ccn2)-c2c(cnn2C)NC1=O` showed an EC1.5 (Plasma) of 0.36 µM and a half-life [14] of 1.13 h.

`C[C@@H]1CCC[C@H](N2CCC(c3cc(Cl)ccc3-n3ccnn3)=CC2=O)c2cc(ccn2)-c2c(cnn2C2CC2)NC1=O` gave an EC1.5 (Plasma) of 0.49 µM, a half-life [14] of 0.0833 h and a Ki (Coagulation factor XI) of 1.1 nM.

`C[C@@H]1CCC[C@H](N2CCC(c3cc(Cl)ccc3-n3ccnn3)=CC2=O)c2cc(ccn2)-c2c(cnn2C(F)F)NC1=O` gave a bioavailability [26] of 7%, a clearance [27] of 42 mL/min/kg and a Vd [28] of 1.2 L/kg. It also gave an AUC [29] of 0.068 µM·h, a half-life [3] of over 2 h and an EC1.5 (Plasma) of 0.45 µM. It also gave a Papp A→B [30] of under 1.5 ×10⁻⁶ cm/s, a half-life [14] of 1.67 h and a half-life [31] of 0.5 h. For the same molecule, the fraction unbound [25] was 0.249.

Molecule `C[C@@H]1CCC[C@H](N2CCC(c3c(F)ccc(Cl)c3F)=CC2=O)c2cc(ccn2)-c2nn(C)cc2NC1=O` has a Ki (Coagulation factor XI) of 171 nM.

For `COC(=O)Nc1ccc2c(c1)NC(=O)[C@H](C)CCC[C@H](N1CCC(c3c(F)ccc(Cl)c3F)=CC1=O)c1cc-2ccn1`, the EC50 (Oryctolagus cuniculus) was 375 nM.

For `C[C@@H]1CCC[C@H](N2CCC(c3c(F)ccc(Cl)c3F)=CC2=O)c2cc(ccn2)-c2cn[nH]c2NC1=O`, the Ki (Coagulation factor XI) was 330 nM.

Work on `C[C@@H]1CCC[C@H](N2CCC(c3cc(Cl)ccc3-n3ccnn3)=CC2=O)c2cc(ccn2)-c2c(cnn2CC(F)F)NC1=O` yielded an EC1.5 (Plasma) of 1.54 µM, a half-life [14] of 1.27 h and a Ki (Coagulation factor XI) of 11 nM.
